Entries after “also recorded” stand apart in the source; their conditions may differ.
How the values were obtained:
[1] = Evaluation of solubility and gelling ability (critical gelation concentration, sample tube inversion method); type: physicochemical
Experimental: The amide alcohol and each liquid were heated and mixed, and the critical gelation concentration was measured by sample tube inversion method.
Sample tube used: used tube: Maruemu screw tube No. 7 (trunk diameter 35 mm, total length 78 mm)

[2] = Solubility of glycerin with various alcohols

Structure (SMILES)	solubility and gelling ability ([1]; Ethanol)	solubility and gelling ability ([1]; Glycerin)	solubility and gelling ability ([1]; Water)	behaviour with glycerin (in words) ([1]; Glycerin)	solubility and gelling ability ([1]; Octyldodecanol)	solubility and gelling ability ([1]; Squalane)	behaviour with water (in words) ([1]; Water)	behaviour with ester oil (in words) [1]	concentration for thickening ([1]; Glycerin)	behaviour with glycerin (in words) ([1]; Glycerin, listed as 4HN CHBA)	concentration for thickening ([1]; Octyldodecanol)	solubility and gelling ability ([1]; Octyldodecyl myristate)	solubility and gelling ability ([1]; Triethylhexanoin)	solubility with glycerin (in words) [2]
CCCCCCCCCCCCNC(=O)CCCCCO [6HN-LHA, 6-hydroxy-N-lauryl, hexylamide]	S	I	I	–	–	–	–	–	–	–	–	–	–	–
CCCCCCCCNC(=O)CCCO [4HN-OBA, 4-hydroxy-N-octyl, butyramide]	S	–	S	gelled; also recorded: thickening/gelation	S	I	solubility in water	gelled	–	–	–	–	–	–
CCCCCCCCCCCCNC(=O)CCCO [4HN-LBA, 4-hydroxy-N-lauryl, butyramide]	S	–	–	gelled	–	–	emulsification-gelled	gelled	–	–	–	–	–	–
O=C(CCCO)NC1CCCCC1 [4HN-CHBA, 4-hydroxy-N-cyclohexyl, butyramide]	S	–	S	thickened	–	I	solubility in water	–	(≥12 wt %)	thickening/gelation	(≥18 wt %)	I	I	–
CCCCCCCCCCCCCCCCCCNC(=O)CCCO [4HN-STBA, 4-hydroxy-N-stearyl, butyramide]	I	I	I	–	–	–	–	–	–	–	–	–	–	–
CCCCCCCCCCCCCCNC(=O)CCCO [4HN-MBA, 4-hydroxy-N-myristyl, butyramide]	S	I	–	–	–	–	–	–	–	–	–	–	–	–
CCCCC(CC)CNC(=O)CCCO (centres unmarked) [4HN-EHBA, 4-hydroxy-N-2-ethylhexyl, butyramide]	S	S	I	–	S	I	–	–	–	–	–	S	I	can be dissolved
CCCCCCCC/C=C\CCCCCCCCNC(=O)CCCO [4HN-OLBA, 4-hydroxy-N-oleyl, butyramide]	S	I	I	–	S	–	–	–	–	–	–	–	–	–
